According to US20230085307A1, “PYRIDAZINONE COMPOUND AND HERBICIDE” (NISSAN CHEMICAL CORPORATION, priority 2019, published 2023):

What was measured:
persian speedwell = assay: Test Example 4: herbicidal effect by soil treatment (Table 19, symbol R); assay type: in vivo, Persian speedwell (Veronica persica)
How it was run: (§1)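 Emulsion of test compound, water-diluted to predetermined amount, sprayed on soil after sowing (seed depth ~1.5 cm, sterilized diluvial soil). Greenhouse, 25–30° C. Effect graded at three weeks post-spray.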

blackgrass [1] = assay: Test Example 5: herbicidal effect by foliage application, plastic box (Table 20, symbol J); assay type: in vivo, blackgrass (Alopecurus myosuroides); conditions: foliage application, three weeks after application
How it was run: (§2)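 Post-emergence foliar test in sterilized diluvial soil. Compound applied as water-diluted emulsion at a predetermined rate to 14-day-old plants; evaluation at three weeks.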

blackgrass [2] = assay: Test Example 4: herbicidal effect by soil treatment (Table 19, symbol J); assay type: in vivo, blackgrass (Alopecurus myosuroides)
How it was run: as §1

Italian ryegrass [3] = assay: Test Example 5: herbicidal effect by foliage application, plastic box (Table 20, symbol K); assay type: in vivo, Italian ryegrass (Lolium multiflorum); conditions: foliage application, three weeks after application
How it was run: as §2

chickweed = assay: Test Example 4: herbicidal effect by soil treatment (Table 19, symbol P); assay type: in vivo, common chickweed (Stellaria media)
How it was run: as §1

late watergrass [4] = assay: Test Example 2: herbicidal activity, application during weed generation under submerged conditions (Table 17, symbol A); assay type: in vivo, late watergrass (Echinochloa oryzicola); conditions: application during weed generation, submerged conditions
How it was run: (§3)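 Herbicide emulsion, diluted with water to the chosen amount, is applied onto 4 cm floodwater over alluvial soil where the weeds were co-sown and raised at 25–30° C. Application timing: 1–2 leaves. Assessment: three weeks afterwards.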

wild oat [5] = assay: Test Example 4: herbicidal effect by soil treatment (Table 19, symbol I); assay type: in vivo, wild oat (Avena fatua)
How it was run: as §1

Japanese bulrush [6] = assay: Test Example 2: herbicidal activity, application during weed generation under submerged conditions (Table 17, symbol B); assay type: in vivo, Japanese bulrush (Schoenoplectus juncoides); conditions: application during weed generation, submerged conditions
How it was run: as §3

Italian ryegrass [7] = assay: Test Example 4: herbicidal effect by soil treatment (Table 19, symbol K); assay type: in vivo, Italian ryegrass (Lolium multiflorum)
How it was run: as §1

velvetleaf = assay: Test Example 5: herbicidal effect by foliage application, plastic box (Table 20, symbol M); assay type: in vivo, velvetleaf (Abutilon theophrasti); conditions: foliage application, three weeks after application
How it was run: as §2

Japanese bulrush [8] = assay: Test Example 1: herbicidal activity, application before weed generation under submerged conditions (Table 16, symbol B); assay type: in vivo, Japanese bulrush (Schoenoplectus juncoides)
How it was run: (§4)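 Alluvial soil was flooded to 4 cm depth, weed seeds were sown mixed and 2.5-leaf rice seedlings were transplanted. On sowing day, the compound's emulsion, diluted in water to a set dose, was applied to the water surface. Plants grew at 25–30 °C and were scored 0–5 after three weeks.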

barnyard grass [9] = assay: Test Example 4: herbicidal effect by soil treatment (Table 19, symbol H); assay type: in vivo, barnyard grass (Echinochloa crus-galli)
How it was run: as §1

redroot pigweed = assay: Test Example 5: herbicidal effect by foliage application, plastic box (Table 20, symbol N); assay type: in vivo, redroot pigweed (Amaranthus retroflexus); conditions: foliage application, three weeks after application
How it was run: as §2

wild oat [10] = assay: Test Example 5: herbicidal effect by foliage application, plastic box (Table 20, symbol I); assay type: in vivo, wild oat (Avena fatua); conditions: foliage application, three weeks after application
How it was run: as §2

late watergrass [11] = assay: Test Example 1: herbicidal activity, application before weed generation under submerged conditions (Table 16, symbol A); assay type: in vivo, late watergrass (Echinochloa oryzicola)
How it was run: as §4

barnyard grass [12] = assay: Test Example 3: herbicidal effect by foliage application, Wagner pot (Table 18, symbol H); assay type: in vivo, barnyard grass (Echinochloa crus-galli)
How it was run: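 Plants were sown in alluvial soil held under 0.1–0.5 cm standing water and grown 14 days in a greenhouse at 25–30 °C. An emulsifiable formulation, water-diluted to the set dose, was then sprayed onto the foliage, and effects were scored three weeks later using previously defined criteria.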

[13] = amount of applied herbicide 296 g/ha
[14] = amount of applied herbicide 320 g/ha

## CCCC(=O)Oc1c(C)nn(C)c(=O)c1-c1c(-c2ccccc2OC)sc2cc(OC)ccc12 [Compound No. 3-066, 5-(6-methoxy-2-(2-methoxyphenyl)benzo[b]thiophen-3-yl)-1,3-dimethyl-6-oxo-1,6-dihydropyridazin-4-yl=(n-butyrate)]
Persian speedwell; [13]
  R: persian speedwell, herbicidal effect grade: 3 (Herbicidal rate of 40% or more and less than 70%)
Blackgrass [1]; 296 g/ha
  J: blackgrass, herbicidal effect grade: 4 (Herbicidal rate of 70% or more and less than 90%)
Blackgrass [2]; [13]
  J: blackgrass, herbicidal effect grade: 3 (Herbicidal rate of 40% or more and less than 70%)
Italian ryegrass [3]; 296 g/ha
  K: Italian ryegrass, herbicidal effect grade: 4 (Herbicidal rate of 70% or more and less than 90%)
chickweed; [13]
  P: chickweed, herbicidal effect grade: 4 (Herbicidal rate of 70% or more and less than 90%)
Late watergrass [4]; AAH 296 g/ha
  herbicidal effect rating, A: late watergrass: 3 (Herbicidal rate of 40% or more and less than 70%)
Wild oat [5]; [13]
  I: wild oat, herbicidal effect grade: 2 (Herbicidal rate of 20% or more and less than 40%)
Japanese bulrush [6]; AAH 296 g/ha
  herbicidal effect rating, B: Japanese bulrush: 4 (Herbicidal rate of 70% or more and less than 90%)
Italian ryegrass [7]; [13]
  K: Italian ryegrass, herbicidal effect grade: 4 (Herbicidal rate of 70% or more and less than 90%)
velvetleaf; 296 g/ha
  M: velvetleaf, herbicidal effect grade: 4 (Herbicidal rate of 70% or more and less than 90%)
Japanese bulrush [8]; [13]
  Herbicidal effect, B: Japanese bulrush: 5 (Herbicidal rate of 90% or more (almost completely withered))
Barnyard grass [9]; [13]
  H: barnyard grass, herbicidal effect grade: 0 (Herbicidal rate of 5% or less (almost no effect))
Redroot pigweed; 296 g/ha
  N: redroot pigweed, herbicidal effect grade: 5 (Herbicidal rate of 90% or more (almost completely withered))
Wild oat [10]; 296 g/ha
  I: wild oat, herbicidal effect grade: 3 (Herbicidal rate of 40% or more and less than 70%)
Late watergrass [11]; [13]
  Herbicidal effect, A: late watergrass: 5 (Herbicidal rate of 90% or more (almost completely withered))
Barnyard grass [12]; 296 g/ha
  herbicidal effect on barnyard grass (H): 5 (Herbicidal rate of 90% or more (almost completely withered))

## CCCC(=O)Oc1c(C)nn(C)c(=O)c1-c1c(-c2ccc(F)cc2OC)sc2cc(OC)ccc12 [3-077]
Persian speedwell; [14]
  R: persian speedwell, herbicidal effect grade: 4 (Herbicidal rate of 70% or more and less than 90%)
Blackgrass [1]; 320 g/ha
  J: blackgrass, herbicidal effect grade: 4 (Herbicidal rate of 70% or more and less than 90%)
Blackgrass [2]; [14]
  J: blackgrass, herbicidal effect grade: 3 (Herbicidal rate of 40% or more and less than 70%)
Italian ryegrass [3]; 320 g/ha
  K: Italian ryegrass, herbicidal effect grade: 3 (Herbicidal rate of 40% or more and less than 70%)
chickweed; [14]
  P: chickweed, herbicidal effect grade: 4 (Herbicidal rate of 70% or more and less than 90%)
Late watergrass [4]; AAH 320 g/ha
  herbicidal effect rating, A: late watergrass: 2 (Herbicidal rate of 20% or more and less than 40%)
Wild oat [5]; [14]
  I: wild oat, herbicidal effect grade: 2 (Herbicidal rate of 20% or more and less than 40%)
Japanese bulrush [6]; AAH 320 g/ha
  herbicidal effect rating, B: Japanese bulrush: 4 (Herbicidal rate of 70% or more and less than 90%)
Italian ryegrass [7]; [14]
  K: Italian ryegrass, herbicidal effect grade: 3 (Herbicidal rate of 40% or more and less than 70%)
velvetleaf; 320 g/ha
  M: velvetleaf, herbicidal effect grade: 4 (Herbicidal rate of 70% or more and less than 90%)
Japanese bulrush [8]; [14]
  Herbicidal effect, B: Japanese bulrush: 5 (Herbicidal rate of 90% or more (almost completely withered))
Barnyard grass [9]; [14]
  H: barnyard grass, herbicidal effect grade: 3 (Herbicidal rate of 40% or more and less than 70%)
Redroot pigweed; 320 g/ha
  N: redroot pigweed, herbicidal effect grade: 3 (Herbicidal rate of 40% or more and less than 70%)
Wild oat [10]; 320 g/ha
  I: wild oat, herbicidal effect grade: 4 (Herbicidal rate of 70% or more and less than 90%)
Late watergrass [11]; [14]
  Herbicidal effect, A: late watergrass: 5 (Herbicidal rate of 90% or more (almost completely withered))
Barnyard grass [12]; 320 g/ha
  herbicidal effect on barnyard grass (H): 5 (Herbicidal rate of 90% or more (almost completely withered))
